Test results: patent US8940738B2, “Pyrimidone compounds” (Mitsubishi Tanabe Pharma Corporation, priority 2009, dated 2015)

Molecular target: bovine cerebral TPK1 (Bos taurus, UniProt A0A059UE90)
Assay: Inhibitory activity against P-GS1 phosphorylation by bovine cerebral TPK1
Format: biochemical
Conditions: P-GS1 substrate, 41.7 μM [γ-32P] ATP, 25° C., 2 hours
Method: Experiment 1: Inhibitory Activity of the Medicament of the Present Invention Against P-GS1 Phosphorylation by Bovine Cerebral TPK1
A mixture containing 100 mM MES-sodium hydroxide (pH 6.5), 1 mM magnesium acetate, 0.5 mM EGTA, 5 mM β-mercaptoethanol, 0.02% Tween 20, 10% glycerol, 12 μg/ml P-GS1, 41.7 μM [γ^−32P] ATP (68 kBq/ml), bovine cerebral TPK1 and a compound shown in Table (a final mixture contained 1.7% DMSO deriving from a solution of a test compound prepared in the presence of 10% DMSO) was used as a reaction system. The phosphorylation was started by adding ATP, and the reaction was conducted at 25° C. for 2 hours, and then stopped by adding 21% perchloric acid on ice cooling. The reaction mixture was centrifuged at 12,000 rpm for 5 minutes and adsorbed on P81 paper (Whatmann), and then the paper was washed four times with 75 mM phosphoric acid, three times with water and once with acetone. The paper was dried, and the residual radioactivity was measured using a liquid scintillation counter.

Chain of bovine cerebral TPK1 (A0A059UE90 1-419): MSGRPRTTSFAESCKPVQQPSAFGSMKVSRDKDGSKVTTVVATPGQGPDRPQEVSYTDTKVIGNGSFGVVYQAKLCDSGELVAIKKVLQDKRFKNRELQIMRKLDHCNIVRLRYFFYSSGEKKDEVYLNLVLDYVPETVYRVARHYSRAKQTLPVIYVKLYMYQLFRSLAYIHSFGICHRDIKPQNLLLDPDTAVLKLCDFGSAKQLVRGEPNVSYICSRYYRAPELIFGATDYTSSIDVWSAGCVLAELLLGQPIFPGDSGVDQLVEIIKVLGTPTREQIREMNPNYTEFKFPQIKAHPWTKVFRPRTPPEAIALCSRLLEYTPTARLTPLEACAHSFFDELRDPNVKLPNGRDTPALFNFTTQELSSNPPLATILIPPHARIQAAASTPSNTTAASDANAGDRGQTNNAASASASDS

Row | IC50 [nM] | SMILES
1 | 15.5 | Cn1c(N2CCO[C@@H](c3ccc(F)cc3)C2)nc(-c2ncncc2F)cc1=O [Compound 1, (S)-5′-fluoro-2-[2-(4-fluoro-phenyl)-morpholin-4-yl]-1-methyl-1H-[4,4′]bipyrimidinyl-6-one]
2 | 10.1 | Cn1c(N2CCNC(c3ccc(C#N)cc3)C2)nc(-c2ncncc2F)cc1=O (centres unmarked) [Compound 6, 4-[4-(5′-Fluoro-1-methyl-6-oxo-1,6-dihydro-[4,4′]bipyrimidinyl-2-yl)-piperazin-2yl]-benzonitrile]
